Measurements taken from patent publication US7880007B2, “Bicyclic substituted phenyl piperidine modulators of muscarinic receptors” (Vertex Pharmaceuticals Incorporated, priority 2004, dated 2011).

Tests used:
Assay type in all cases: cell-based
M2 muscarinic receptor = biological target: T1, M2 muscarinic receptor (Homo sapiens, UniProt P08172); experiment: Functional mobilization of intracellular calcium (FLIPR), M2-CHO cells; conditions: for M2 Activity: M2-CHO cells, calcium mobilization (FLIPR)
T1 construct: expressed in transfected cells; host or cells: CHO (M2-CHO)
T1 sequence (P08172 1-466): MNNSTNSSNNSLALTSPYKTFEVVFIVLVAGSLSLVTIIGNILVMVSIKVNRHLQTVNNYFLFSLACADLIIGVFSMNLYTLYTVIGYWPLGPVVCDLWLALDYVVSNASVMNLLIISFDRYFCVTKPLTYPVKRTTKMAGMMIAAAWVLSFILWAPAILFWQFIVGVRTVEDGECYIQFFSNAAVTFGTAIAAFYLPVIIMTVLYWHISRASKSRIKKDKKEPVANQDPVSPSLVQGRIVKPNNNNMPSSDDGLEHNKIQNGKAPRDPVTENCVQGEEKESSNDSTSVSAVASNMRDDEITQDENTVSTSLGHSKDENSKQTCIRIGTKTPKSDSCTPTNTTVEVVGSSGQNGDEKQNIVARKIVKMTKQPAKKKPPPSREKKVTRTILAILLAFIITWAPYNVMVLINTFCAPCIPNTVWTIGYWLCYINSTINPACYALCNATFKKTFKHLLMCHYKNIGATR
Outline: (§1)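 CHO cells expressing human M1–M4 receptors loaded with Fluo-3 AM or Calcium 3 dye (1 mM probenecid, pH 7.4); 0.5% DMSO final. Agonist mode: compound added directly; antagonist mode: 15 min pre-incubation or co-application, then carbachol at EC80. Fluorescence read 60 s on FLIPR; efficacy relative to carbachol maximum.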

M1 muscarinic receptor = biological target: T2, M1 muscarinic receptor (Homo sapiens, UniProt P11229); experiment: Functional mobilization of intracellular calcium (FLIPR), M1-CHO cells; conditions: for M1 Activity: M1-CHO cells, calcium mobilization (FLIPR)
T2 construct: expressed in transfected cells; host or cells: CHO (M1-CHO)
T2 sequence (P11229 1-460): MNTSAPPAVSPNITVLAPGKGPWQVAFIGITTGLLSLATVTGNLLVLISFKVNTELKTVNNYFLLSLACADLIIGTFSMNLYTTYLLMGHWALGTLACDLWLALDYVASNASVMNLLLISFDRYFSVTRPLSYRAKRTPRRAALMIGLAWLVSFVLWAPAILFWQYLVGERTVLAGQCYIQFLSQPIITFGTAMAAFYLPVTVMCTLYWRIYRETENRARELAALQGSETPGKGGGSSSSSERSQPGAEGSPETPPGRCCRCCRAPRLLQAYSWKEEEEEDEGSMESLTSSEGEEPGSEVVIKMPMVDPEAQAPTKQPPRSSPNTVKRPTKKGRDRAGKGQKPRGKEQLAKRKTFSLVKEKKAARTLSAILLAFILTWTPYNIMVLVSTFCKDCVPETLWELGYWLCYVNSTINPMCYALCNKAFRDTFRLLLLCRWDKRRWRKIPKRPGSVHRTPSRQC
Outline: as §1

M4 muscarinic receptor = biological target: T3, M4 muscarinic receptor (Homo sapiens, UniProt P08173); experiment: Functional mobilization of intracellular calcium (FLIPR), M4-CHO cells; conditions: for M4 Activity: M4-CHO cells, calcium mobilization (FLIPR)
T3 construct: expressed in transfected cells; host or cells: CHO (M4-CHO)
T3 sequence (P08173 1-479): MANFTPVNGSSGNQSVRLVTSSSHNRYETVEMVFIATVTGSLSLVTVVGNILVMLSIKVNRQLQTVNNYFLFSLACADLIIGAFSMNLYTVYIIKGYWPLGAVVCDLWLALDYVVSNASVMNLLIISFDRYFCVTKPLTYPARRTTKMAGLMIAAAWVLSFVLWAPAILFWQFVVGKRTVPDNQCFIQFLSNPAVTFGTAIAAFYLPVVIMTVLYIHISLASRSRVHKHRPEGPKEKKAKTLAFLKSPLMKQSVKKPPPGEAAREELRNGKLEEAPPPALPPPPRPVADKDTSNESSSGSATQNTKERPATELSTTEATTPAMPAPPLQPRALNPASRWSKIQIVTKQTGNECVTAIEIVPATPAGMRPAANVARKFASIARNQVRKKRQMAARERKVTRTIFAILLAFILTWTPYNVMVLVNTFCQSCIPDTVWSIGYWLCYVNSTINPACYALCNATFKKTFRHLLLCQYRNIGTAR
Outline: as §1

M3 muscarinic receptor = biological target: T4, M3 muscarinic receptor (Homo sapiens, UniProt P20309); experiment: Functional mobilization of intracellular calcium (FLIPR), M3-CHO cells; conditions: for M3 Activity: M3-CHO cells, calcium mobilization (FLIPR)
T4 construct: expressed in transfected cells; host or cells: CHO (M3-CHO)
Outline: as §1

[1] = 100% efficacy = maximum response obtained with the Carbachol control

T4 sequence (P20309 whole entry): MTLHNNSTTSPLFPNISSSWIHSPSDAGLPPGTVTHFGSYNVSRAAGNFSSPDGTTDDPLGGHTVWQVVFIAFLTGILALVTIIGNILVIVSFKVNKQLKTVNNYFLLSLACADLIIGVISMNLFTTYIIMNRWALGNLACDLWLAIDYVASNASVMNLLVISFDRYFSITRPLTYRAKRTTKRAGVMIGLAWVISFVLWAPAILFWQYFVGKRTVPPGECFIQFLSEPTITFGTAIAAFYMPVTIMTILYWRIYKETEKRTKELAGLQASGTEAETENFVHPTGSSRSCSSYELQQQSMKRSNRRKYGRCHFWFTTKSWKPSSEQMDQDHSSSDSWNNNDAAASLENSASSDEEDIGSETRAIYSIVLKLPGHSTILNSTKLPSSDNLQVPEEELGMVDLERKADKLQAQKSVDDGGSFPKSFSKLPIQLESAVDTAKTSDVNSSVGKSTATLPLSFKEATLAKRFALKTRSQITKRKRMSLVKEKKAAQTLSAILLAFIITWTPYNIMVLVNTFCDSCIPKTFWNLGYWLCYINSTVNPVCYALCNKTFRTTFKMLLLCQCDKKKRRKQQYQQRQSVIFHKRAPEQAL

| SMILES | Emax (M2 muscarinic receptor; [1]) [%] | M2 Activity (M2 muscarinic receptor) | Emax (M1 muscarinic receptor; [1]) [%] | M1 Activity (M1 muscarinic receptor) | Emax (M4 muscarinic receptor; [1]) [%] | M4 Activity (M4 muscarinic receptor) | M3 Activity (M3 muscarinic receptor) | Emax (M3 muscarinic receptor; [1]) [%] | M2 Efficacy (M2 muscarinic receptor; [1]) | M1 Efficacy (M1 muscarinic receptor; [1]) | M4 Efficacy (M4 muscarinic receptor; [1]) | M3 Efficacy (M3 muscarinic receptor; [1]) |
| --- | --- | --- | --- | --- | --- | --- | --- | --- | --- | --- | --- | --- |
| Cc1ccc(C)c(C2CCN(C3CC4CCC3C4)CC2)c1 (centres unmarked) [Compound 341] | < 25 | + (activity was measured to be greater than 5.0 μM) | < 25 | + (activity was measured to be greater than 5.0 μM) | 25 to 100 | ++ (activity was measured to be from 1.0 μM to 5.0 μM) | + (activity was measured to be greater than 5.0 μM) | – | – | – | – | – |
| COc1ccc(-c2ccc(C#N)cc2)cc1C1CCN(C2CCCCC2)CC1 [Compound 342] | < 25 | + (activity was measured to be greater than 5.0 μM) | 25 to 100 | + (activity was measured to be greater than 5.0 μM) | 25 to 100 | ++ (activity was measured to be from 1.0 μM to 5.0 μM) | + (activity was measured to be greater than 5.0 μM) | < 25 | – | – | – | – |
| FC(F)(F)c1ccccc1C1CCN(C2CC3CCC(C3)C2)CC1 (centres unmarked) [Compound 343] | < 25 | + (activity was measured to be greater than 5.0 μM) | 25 to 100 | + (activity was measured to be greater than 5.0 μM) | 25 to 100 | +++ (activity was measured to be less than 1.0 μM) | + (activity was measured to be greater than 5.0 μM) | < 25 | – | – | – | – |
| CCOC(=O)N1CCC(CN2CCC(c3cc(-c4ccc(C#N)cc4)ccc3OC)CC2)CC1 [Compound 345] | < 25 | + (activity was measured to be greater than 5.0 μM) | 25 to 100 | ++ (activity was measured to be from 1.0 μM to 5.0 μM) | 25 to 100 | +++ (activity was measured to be less than 1.0 μM) | + (activity was measured to be greater than 5.0 μM) | < 25 | – | – | – | – |
| COc1ccccc1C1CCN(CC2CC2)CC1 [Compound 346] | < 25 | + (activity was measured to be greater than 5.0 μM) | < 25 | + (activity was measured to be greater than 5.0 μM) | < 25 | + (activity was measured to be greater than 5.0 μM) | + (activity was measured to be greater than 5.0 μM) | < 25 | – | – | – | – |
| COc1ccc(-c2ccccc2C(N)=O)cc1C1CCN([C@H]2C[C@H]3CC[C@H]2C3)CC1 [Compound 347] | < 25 | + (activity was measured to be greater than 5.0 μM) | < 25 | + (activity was measured to be greater than 5.0 μM) | 25 to 100 | ++ (activity was measured to be from 1.0 μM to 5.0 μM) | + (activity was measured to be greater than 5.0 μM) | < 25 | – | – | – | – |
| COc1cc(F)ccc1C1CCN(C2CCOCC2)CC1 [Compound 349] | < 25 | + (activity was measured to be greater than 5.0 μM) | 25 to 100 | + (activity was measured to be greater than 5.0 μM) | 25 to 100 | +++ (activity was measured to be less than 1.0 μM) | + (activity was measured to be greater than 5.0 μM) | < 25 | – | – | – | – |
| C=CCON=C1CCC(N2CCC(c3cc(Cl)ccc3OC)CC2)CC1 (centres unmarked) [Compound 350] | – | ++ (activity was measured to be from 1.0 μM to 5.0 μM) | – | +++ (activity was measured to be less than 1.0 μM) | – | +++ (activity was measured to be less than 1.0 μM) | + (activity was measured to be greater than 5.0 μM) | – | + (efficacy was calculated to be less than 25%) | ++ (efficacy was calculated to be from 100% to 25%) | ++ (efficacy was calculated to be from 100% to 25%) | + (efficacy was calculated to be less than 25%) |
| COc1ccc(-c2ccc(C#N)cc2)cc1C1CCN(C2CCOCC2)CC1 [Compound 352] | < 25 | + (activity was measured to be greater than 5.0 μM) | 25 to 100 | + (activity was measured to be greater than 5.0 μM) | 25 to 100 | + (activity was measured to be greater than 5.0 μM) | + (activity was measured to be greater than 5.0 μM) | < 25 | – | – | – | – |
| CNC(=O)c1ccc(-c2ccc(OC)c(C3CCN(C4CCCCC4)CC3)c2)cc1Cl [Compound 353] | < 25 | + (activity was measured to be greater than 5.0 μM) | < 25 | + (activity was measured to be greater than 5.0 μM) | 25 to 100 | ++ (activity was measured to be from 1.0 μM to 5.0 μM) | + (activity was measured to be greater than 5.0 μM) | < 25 | – | – | – | – |
| COc1ccc(F)cc1C1CCN([C@@H]2C[C@H]3CC[C@H]2C3)CC1 [Compound 354] | 25 to 100 | ++ (activity was measured to be from 1.0 μM to 5.0 μM) | 25 to 100 | +++ (activity was measured to be less than 1.0 μM) | 25 to 100 | +++ (activity was measured to be less than 1.0 μM) | + (activity was measured to be greater than 5.0 μM) | < 25 | – | – | – | – |
| CCOC(=O)N1C2CCC1CC(N1CCC(c3ccccc3OC(F)(F)F)CC1)C2 (centres unmarked) [Compound 355] | < 25 | + (activity was measured to be greater than 5.0 μM) | 25 to 100 | +++ (activity was measured to be less than 1.0 μM) | 25 to 100 | +++ (activity was measured to be less than 1.0 μM) | + (activity was measured to be greater than 5.0 μM) | < 25 | – | – | – | – |
